From PubChem BioAssay (NCI)
Several values for one entry are separate records, joined by “and”; a condition that tells them apart may be missing. Equal entries are not always repeated.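 Cultured in 96-well plates, cells were exposed to test compound for 48 hours across five concentrations. GI50 marks 50% less growth. Definition used: TGI = concentration required for complete inhibition of growth.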

Tests used:
Assay in all cases: DTP human tumour cell line panel, 48 h
HOP-62 NSCLC = test system: HOP-62 NSCLC
NCI-H226 lung = test system: NCI-H226 lung
HCT-116 colon = test system: HCT-116 colon
KM12 colon = test system: KM12 colon
RXF-631 renal = test system: RXF-631 renal
SK-MEL-5 melanoma = test system: SK-MEL-5 melanoma
K-562 leukemia = test system: K-562 leukemia
SW-620 colon = test system: SW-620 colon
SK-OV-3 ovarian = test system: SK-OV-3 ovarian
TK-10 renal = test system: TK-10 renal
OVCAR-8 ovarian = test system: OVCAR-8 ovarian
LXFL 529 NSCLC = test system: LXFL 529 NSCLC
ACHN renal = test system: ACHN renal
OVCAR-3 ovarian = test system: OVCAR-3 ovarian
HL-60(TB) leukemia = test system: HL-60(TB) leukemia
786-0 renal = test system: 786-0 renal
MALME-3M melanoma = test system: MALME-3M melanoma
DMS 114 small cell lung = test system: DMS 114 small cell lung
M19-MEL melanoma = test system: M19-MEL melanoma
HOP-92 NSCLC = test system: HOP-92 NSCLC
SF-539 CNS = test system: SF-539 CNS
SF-268 CNS = test system: SF-268 CNS
UACC-257 melanoma = test system: UACC-257 melanoma
SNB-19 CNS = test system: SNB-19 CNS
HCC-2998 colon = test system: HCC-2998 colon
XF 498 CNS = test system: XF 498 CNS
KM20L2 colon = test system: KM20L2 colon
UACC-62 melanoma = test system: UACC-62 melanoma
SNB-78 CNS = test system: SNB-78 CNS
SF-295 CNS = test system: SF-295 CNS
DLD-1 colon = test system: DLD-1 colon
NCI-H23 lung = test system: NCI-H23 lung
NCI-H522 lung = test system: NCI-H522 lung
M14 melanoma = test system: M14 melanoma
OVCAR-5 ovarian = test system: OVCAR-5 ovarian
A498 renal = test system: A498 renal
DMS 273 small cell lung = test system: DMS 273 small cell lung
LOX IMVI melanoma = test system: LOX IMVI melanoma
SN12C renal = test system: SN12C renal
HCT-15 colon = test system: HCT-15 colon
CAKI-1 renal = test system: CAKI-1 renal
MOLT-4 leukemia = test system: MOLT-4 leukemia
A549 NSCLC = test system: A549 NSCLC
IGROV1 ovarian = test system: IGROV1 ovarian
SK-MEL-28 melanoma = test system: SK-MEL-28 melanoma
COLO 205 colon = test system: COLO 205 colon
SNB-75 CNS = test system: SNB-75 CNS
U251 CNS = test system: U251 CNS
CCRF-CEM leukemia = test system: CCRF-CEM leukemia
RXF 393 renal = test system: RXF 393 renal
NCI-H460 lung = test system: NCI-H460 lung
HT29 colon = test system: HT29 colon
OVCAR-4 ovarian = test system: OVCAR-4 ovarian
SK-MEL-2 melanoma = test system: SK-MEL-2 melanoma
UO-31 renal = test system: UO-31 renal
RPMI-8226 leukemia = test system: RPMI-8226 leukemia
EKVX NSCLC = test system: EKVX NSCLC
SR leukemia = test system: SR leukemia
BT-549 breast = test system: BT-549 breast
MCF7 breast = test system: MCF7 breast
DU-145 prostate = test system: DU-145 prostate
T-47D breast = test system: T-47D breast
MDA-N = test system: MDA-N
MDA-MB-435 = test system: MDA-MB-435
NCI/ADR-RES ovarian = test system: NCI/ADR-RES ovarian
HOP-18 NSCLC = test system: HOP-18 NSCLC

Work on `O=C(CCc1nnc2s/c(=C\c3ccc([N+](=O)[O-])cc3)c(=O)n12)Nc1ccc(Cl)c(Cl)c1` yielded a TGI (HOP-62 NSCLC) of 45.7 µM, a TGI (NCI-H226 lung) of 37 µM and a TGI (HCT-116 colon) of over 100 µM. The TGI (KM12 colon) was 31.2 µM, the TGI (RXF-631 renal) was over 100 µM and the TGI (SK-MEL-5 melanoma) was over 100 µM. For the same compound, the TGI (K-562 leukemia) was 63.9 µM, the TGI (SW-620 colon) was 58.4 µM and the TGI (SK-OV-3 ovarian) was over 100 µM. It also gave a TGI (TK-10 renal) of over 100 µM, a TGI (OVCAR-8 ovarian) of 38.9 µM and a TGI (LXFL 529 NSCLC) of 26.2 µM. For the same compound, the TGI (ACHN renal) was over 100 µM, the TGI (OVCAR-3 ovarian) was 27 µM and the TGI (HL-60(TB) leukemia) was 44.3 µM. For the same compound, the TGI (786-0 renal) was 35.7 µM, the TGI (MALME-3M melanoma) was 98 µM and the TGI (DMS 114 small cell lung) was 33.4 µM. The TGI (M19-MEL melanoma) was over 100 µM, the TGI (HOP-92 NSCLC) was over 100 µM and the TGI (SF-539 CNS) was 32.2 µM. For the same compound, the TGI (SF-268 CNS) was 35.7 µM, the TGI (UACC-257 melanoma) was over 100 µM and the TGI (SNB-19 CNS) was over 100 µM. The TGI (HCC-2998 colon) was 53.9 µM, the TGI (XF 498 CNS) was 45.5 µM and the TGI (KM20L2 colon) was over 100 µM. The TGI (UACC-62 melanoma) was 78.8 µM, the TGI (SNB-78 CNS) was 52.8 µM and the TGI (SF-295 CNS) was 58.4 µM. For the same compound, the TGI (DLD-1 colon) was 46.5 µM, the TGI (NCI-H23 lung) was 75.6 µM and the TGI (NCI-H522 lung) was 32.3 µM. The TGI (M14 melanoma) was 45 µM, the TGI (OVCAR-5 ovarian) was over 100 µM and the TGI (A498 renal) was over 100 µM. For the same compound, the TGI (DMS 273 small cell lung) was 54.4 µM, the TGI (LOX IMVI melanoma) was 31.9 µM and the TGI (SN12C renal) was 63.9 µM. For the same compound, the TGI (HCT-15 colon) was over 100 µM, the TGI (CAKI-1 renal) was over 100 µM and the TGI (MOLT-4 leukemia) was 51.5 µM. The TGI (A549 NSCLC) was over 100 µM, the TGI (IGROV1 ovarian) was 50 µM and the TGI (SK-MEL-28 melanoma) was 63.8 µM. The TGI (COLO 205 colon) was 82.9 µM, the TGI (SNB-75 CNS) was 28 µM and the TGI (U251 CNS) was 31.2 µM. It also gave a TGI (CCRF-CEM leukemia) of 51 µM, a TGI (RXF 393 renal) of 34.6 µM and a TGI (NCI-H460 lung) of over 100 µM. For the same compound, the TGI (HT29 colon) was 71.7 µM, the TGI (OVCAR-4 ovarian) was 35.1 µM and the TGI (SK-MEL-2 melanoma) was 73.9 µM. The TGI (UO-31 renal) was over 100 µM and the TGI (RPMI-8226 leukemia) was 46.5 µM.

In the case of `CC[C@@]1(OP(=O)(O)O)C(=O)OCc2c1cc1n(c2=O)Cc2cc3ccccc3nc2-1`, the GI50 (EKVX NSCLC) is reported as 2.13 µM, the TGI (EKVX NSCLC) is reported as over 100 µM and the GI50 (HOP-62 NSCLC) is reported as 0.0131 µM. For the same compound, the TGI (HOP-62 NSCLC) was 1.47 µM and 0.248 µM, the GI50 (NCI-H226 lung) was 0.0379 µM and the TGI (NCI-H226 lung) was 1.16 µM and 0.66 µM. For the same compound, the TGI (HCT-116 colon) was 1.51 µM, the TGI (KM12 colon) was 3.47 µM and the GI50 (SK-MEL-5 melanoma) was 0.126 µM. The TGI (SK-MEL-5 melanoma) was 0.458 µM and 0.46 µM, the TGI (SR leukemia) was 0.0566 µM and the GI50 (K-562 leukemia) was 0.572 µM. The TGI (K-562 leukemia) was over 100 µM, the TGI (BT-549 breast) was 4.55 µM and the TGI (SW-620 colon) was 9.44 µM. The GI50 (SK-OV-3 ovarian) was 0.105 µM, the TGI (SK-OV-3 ovarian) was 7.98 µM and 6.46 µM and the GI50 (TK-10 renal) was 4.62 µM. It also gave a TGI (TK-10 renal) of 88 µM, a GI50 (OVCAR-8 ovarian) of 0.427 µM and a TGI (MCF7 breast) of 1.55 µM. The TGI (DU-145 prostate) was 0.598 µM, the TGI (LXFL 529 NSCLC) was 70.8 µM and the GI50 (ACHN renal) was 0.0243 µM. For the same compound, the TGI (ACHN renal) was 0.853 µM and 0.26 µM, the GI50 (OVCAR-3 ovarian) was 0.93 µM and the TGI (OVCAR-3 ovarian) was 3.79 µM. For the same compound, the TGI (HL-60(TB) leukemia) was 0.188 µM, the GI50 (786-0 renal) was 0.0367 µM and the GI50 (MALME-3M melanoma) was 1.09 µM. For the same compound, the TGI (MALME-3M melanoma) was 9.87 µM and 14 µM, the GI50 (DMS 114 small cell lung) was 0.0678 µM and the TGI (DMS 114 small cell lung) was 0.509 µM and 3.37 µM. The GI50 (M19-MEL melanoma) was 0.25 µM, the TGI (M19-MEL melanoma) was 6.47 µM and 2.05 µM and the GI50 (HOP-92 NSCLC) was 1.24 µM. For the same compound, the TGI (HOP-92 NSCLC) was 2.7 µM and 6.46 µM, the GI50 (SF-539 CNS) was 0.0472 µM and the TGI (SF-539 CNS) was 0.537 µM and 0.373 µM. The GI50 (SF-268 CNS) was 0.0774 µM, the TGI (SF-268 CNS) was 5.28 µM and 9.45 µM and the TGI (UACC-257 melanoma) was 2.58 µM and 3.86 µM. The GI50 (SNB-19 CNS) was 0.143 µM, the TGI (SNB-19 CNS) was 39.3 µM and the GI50 (HCC-2998 colon) was 1.57 µM. For the same compound, the TGI (HCC-2998 colon) was 6.06 µM and 8.45 µM, the GI50 (XF 498 CNS) was 1.88 µM and the TGI (XF 498 CNS) was 2.21 µM and 9.34 µM. For the same compound, the GI50 (KM20L2 colon) was 0.458 µM, the GI50 (UACC-62 melanoma) was 0.0269 µM and the TGI (UACC-62 melanoma) was 0.404 µM and 1.48 µM. The GI50 (SNB-78 CNS) was 3.81 µM, the TGI (SNB-78 CNS) was over 100 µM and the GI50 (SF-295 CNS) was 0.0249 µM. The TGI (SF-295 CNS) was 0.866 µM and 1.97 µM, the GI50 (DLD-1 colon) was 2.56 µM and the TGI (T-47D breast) was 0.867 µM. The GI50 (NCI-H23 lung) was 0.0827 µM, the GI50 (NCI-H522 lung) was 0.0688 µM and the TGI (NCI-H522 lung) was 3 µM and 1.88 µM. The GI50 (M14 melanoma) was 0.173 µM, the TGI (M14 melanoma) was 1.87 µM and 5.28 µM and the GI50 (OVCAR-5 ovarian) was 0.553 µM. For the same compound, the GI50 (A498 renal) was 0.128 µM, the TGI (A498 renal) was 0.559 µM and 0.96 µM and the TGI (DMS 273 small cell lung) was 0.194 µM. The TGI (LOX IMVI melanoma) was 0.585 µM, the GI50 (SN12C renal) was 0.024 µM and the TGI (SN12C renal) was 6.08 µM and 0.619 µM. It also gave a TGI (MDA-N) of 4.59 µM, a TGI (CAKI-1 renal) of 1.04 µM and a TGI (MDA-MB-435) of 2.11 µM. For the same compound, the TGI (MOLT-4 leukemia) was 0.147 µM and 0.395 µM, the GI50 (A549 NSCLC) was 0.12 µM and the TGI (A549 NSCLC) was 7.33 µM and 12.3 µM. The TGI (NCI/ADR-RES ovarian) was 0.715 µM, the GI50 (HOP-18 NSCLC) was 0.408 µM and the TGI (HOP-18 NSCLC) was 44.4 µM. For the same compound, the GI50 (IGROV1 ovarian) was 0.377 µM, the TGI (IGROV1 ovarian) was 4.51 µM and 5.58 µM and the GI50 (SK-MEL-28 melanoma) was 1.86 µM. The TGI (SK-MEL-28 melanoma) was 57.7 µM, the GI50 (COLO 205 colon) was 1.21 µM and the TGI (COLO 205 colon) was 5.64 µM. The GI50 (SNB-75 CNS) was 0.143 µM, the TGI (SNB-75 CNS) was 3.31 µM and 17.3 µM and the TGI (U251 CNS) was 0.747 µM. For the same compound, the TGI (CCRF-CEM leukemia) was 0.118 µM and 0.319 µM, the GI50 (RXF 393 renal) was 0.144 µM and the TGI (RXF 393 renal) was 3.52 µM and 0.81 µM. For the same compound, the TGI (NCI-H460 lung) was 0.666 µM, the GI50 (HT29 colon) was 0.428 µM and the TGI (OVCAR-4 ovarian) was 6.44 µM and 4.85 µM. The GI50 (SK-MEL-2 melanoma) was 1.85 µM, the TGI (SK-MEL-2 melanoma) was 7.36 µM and 5.05 µM and the GI50 (UO-31 renal) was 0.099 µM. For the same compound, the TGI (UO-31 renal) was 0.625 µM and 1.03 µM, the GI50 (RPMI-8226 leukemia) was 0.187 µM and the TGI (RPMI-8226 leukemia) was 2.27 µM and 4.58 µM.
